Earlier results as cited in patent publication US20220313611A1, “METHODS TO PREPARE DRY POWDERS USING SUSPENSION BASED THIN FILM FREEZING” (BOARD OF REGENTS, THE UNIVERSITY OF TEXAS SYSTEM, priority 2021, published 2022).

solubility in water: practically insoluble in water
Structure (SMILES): C=CC[C@@H]1/C=C(\C)C[C@H](C)C[C@H](OC)[C@H]2O[C@@](O)(C(=O)C(=O)N3CCCC[C@H]3C(=O)O[C@H](/C(C)=C/[C@@H]3CC[C@@H](O)[C@H](OC)C3)[C@H](C)[C@@H](O)CC1=O)[C@H](C)C[C@@H]2OC [TAC, Tacrolimus]
